Data: patent US20110212891A1 (MSD K.K., priority 2008, published 2011)

molecular target: T1, Human DGAT1 (Homo sapiens, UniProt O75907); assay: DGAT1 Inhibitory Activity Test ([14C]-oleoyl-CoA, DGAT1-expressed yeast membrane fraction); format: biochemical; details: Table 5, room temperature, 30 minutes
T1 construct: made in house; host or cells: Pichia pastoris (printed 'Pichia pastris'), vector pPICZA; the membrane fraction served as enzyme source
T1 sequence (O75907 1-488): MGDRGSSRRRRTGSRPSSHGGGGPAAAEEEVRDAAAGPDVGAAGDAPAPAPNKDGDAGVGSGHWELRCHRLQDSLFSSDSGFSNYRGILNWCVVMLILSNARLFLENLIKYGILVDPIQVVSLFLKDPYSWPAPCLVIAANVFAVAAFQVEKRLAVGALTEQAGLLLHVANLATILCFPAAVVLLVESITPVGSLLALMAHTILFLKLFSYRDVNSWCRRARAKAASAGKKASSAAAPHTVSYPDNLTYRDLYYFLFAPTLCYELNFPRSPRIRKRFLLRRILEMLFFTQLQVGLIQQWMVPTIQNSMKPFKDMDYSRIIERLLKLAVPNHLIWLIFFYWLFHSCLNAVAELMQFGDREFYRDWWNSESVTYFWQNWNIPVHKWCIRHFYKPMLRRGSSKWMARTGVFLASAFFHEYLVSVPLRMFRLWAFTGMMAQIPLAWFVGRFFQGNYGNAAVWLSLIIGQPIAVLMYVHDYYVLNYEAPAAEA
Description: Human DGAT1 genes were amplified by PCR using primers described below from human cDNA library (Clontech).
The amplified human DGAT1 genes were introduced into a yeast expression vector pPICZA (Invitrogen). The resultant expression plasmid was introduced into a yeast (Pichia pastris) by electroporation to produce a recombinant yeast. The recombination yeast was cultured in the presence of 0,5% methanol for 72 hours, and the cells were crushed using glass beads in 10 mM Tris pH 7.5, 250 mM sucrose and 1 mM EDTA, followed by adjusting the membrane fraction by centrifugation to use the adjusted membrane fraction as an enzyme source.
To the reaction liquid having the following composition: 100 mM Tris pH 7.5, 100 mM MgCl2, 100 mM sucrose, 40 μM dioelin, 15 μm [^14C]-oleoyl-CoA, 0.25 μg of test substance, DGAT1-expressed yeast membrane fraction, was added, and the mixture having a volume of 100 μl was incubated at room temperature for 30 minutes. To the reaction liquid, 100 μl of 2-propanol/heptan/H2O (80:20:2) was added, the mixture was stirred well, followed by adding 200 μl of heptane and further stirring the mixture. After centrifugation, the heptane layer was collected, ethanol/0.1N NaOH/H2O (50:5:45) was added, the mixture was thus stirred, followed by recentrifuging the mixture and collecting the heptane layer. After exsiccation of the obtained heptane layer, 100 μl of Microscint 0 (PerkinElmer) was added, and the radioactivity was measured with a liquid scintillation counter. The inhibitory activity was calculated from the following formula:
Inhibition rate=100−(radioactivity in case of addition of test compound−background)/(radioactivity in case of addition of no test compound−background)×100
wherein the background means the radioactivity in case of addition of no membrane fraction.

Point of comparison: `CC(C)(C)OC(=O)NC1(C(=O)NC2CCc3ccccc3N(Cc3ccc(OC(F)(F)F)cc3)C2=O)CCC1` (single isomer, unassigned) [Example 46 Enantiomer A, tert-butyl{1-[({2-oxo-1-[4-(trifluoromethoxy)benzyl]-2,3,4,5-tetrahydro-1H-1-benzazepin-3-yl}amino)carbonyl]cyclobutyl}carbamate], IC50 189 nM. Against it:
- O=C1C(NC(=O)C2(NC(=O)C3(C(F)(F)F)CC3)CC2)CCc2cc(OC(F)(F)F)ccc2N1Cc1cc(C(F)(F)F)cc(C(F)(F)F)c1 (single isomer, unassigned) [Example 41 Enantiomer A, N-[1-({[1-[3,5-bis(trifluoromethyl)benzyl]-2-oxo-7-(trifluoromethoxy)-2,3,4,5-tetrahydro-1H-1-benzazepin-3-yl]amino}carbonyl)cyclopropyl]-1-(trifluoromethyl)cyclopropane carboxyamide] — within 1.5-fold, 137 nM
- O=C1C(NC(=O)C2(NC(=O)C3(C(F)(F)F)CC3)CC2)CCc2cc(OC(F)(F)F)ccc2N1Cc1cc(C(F)(F)F)cc(C(F)(F)F)c1 (single isomer, unassigned) [Example 41 Enantiomer B, N-[1-({[1-[3,5-bis(trifluoromethyl)benzyl]-2-oxo-7-(trifluoromethoxy)-2,3,4,5-tetrahydro-1H-1-benzazepin-3-yl]amino}carbonyl)cyclopropyl]-1-(trifluoromethyl)cyclopropane carboxyamide] — 4.5-fold higher, 858 nM
- CC(C)(C)OC(=O)NC1(C(=O)NC2CCc3ccccc3N(Cc3ccc(OC(F)(F)F)cc3)C2=O)CCC1 (single isomer, unassigned) [Example 46 Enantiomer B, tert-butyl{1-[({2-oxo-1-[4-(trifluoromethoxy)benzyl]-2,3,4,5-tetrahydro-1H-1-benzazepin-3-yl}amino)carbonyl]cyclobutyl}carbamate] — 14-fold lower, 14 nM
- CC(C)(C)OC(=O)NC1(C(=O)NC2CCc3ccccc3N(Cc3ccc(OC(F)(F)F)cc3)C2=O)CCCC1 (single isomer, unassigned) [Example 47 Enantiomer A] — within 1.5-fold, 153 nM
- CC(C)(C)OC(=O)NC1(C(=O)NC2CCc3ccccc3N(Cc3ccc(OC(F)(F)F)cc3)C2=O)CCCC1 (single isomer, unassigned) [Example 47 Enantiomer B] — 9-fold lower, 21 nM
- O=C(NC1(C(=O)N[C@@H]2CC(=O)c3ccccc3N(Cc3cc(C(F)(F)F)cc(C(F)(F)F)c3)C2=O)CC1)c1ccc(F)c(F)n1 [Example 8] — 2.2-fold lower, 85 nM
- CC(C)(C)OC(=O)NC1(C(=O)N[C@H]2CC(=O)c3ccccc3N(Cc3ccc(-c4ccccc4)cc3)C2=O)CC1 [Example 21] — 7.9-fold lower, 24 nM

same assay, conditions: Table 6, room temperature, 30 minutes

Point of comparison: `O=C(NC1(C(=O)N[C@@H]2CC(=O)c3ccccc3N(Cc3cc(C(F)(F)F)cc(C(F)(F)F)c3)C2=O)CCC1)c1nccs1` [Example 52, N-{1-[({(3R)-1-[3,5-bis(trifluoromethyl)benzyl]-2,5-dioxo-2,3,4,5-tetrahydro-1H-1-benzazepin-3-yl}amino)carbonyl]cyclobutyl}-1,3-thiazole-2-carboxamide], IC50 253 nM. Against it:
- O=C(NC1(C(=O)N[C@@H]2CC(=O)c3ccccc3N(Cc3cc(C(F)(F)F)cc(C(F)(F)F)c3)C2=O)CC1)c1nccs1 [Example 50, N-{1-[({(3R)-1-[3,5-bis(trifluoromethyl)benzyl]-2,5-dioxo-2,3,4,5-tetrahydro-1H-1-benzazepin-3-yl}amino)carbonyl}cyclopropyl}-1,3-thiazole-2-carboxamide] — 3.9-fold lower, 65 nM
- CC(C)(C)OC(=O)NC1(C(=O)N[C@@H]2CC(=O)c3ccccc3N(Cc3cc(C(F)(F)F)cc(C(F)(F)F)c3)C2=O)CCC1 [Example 51, tert-butyl{1-[({(3R)-1-[3,5-bis(trifluoromethyl)benzyl]-2,5-dioxo-2,3,4,5-tetrahydro-1H-1-benzazepin-3-yl}amino)carbonyl]cyclobutyl}carbamate] — 6.2-fold lower, 41 nM
- O=C(NC1(C(=O)N[C@@H]2CC(=O)c3ccccc3N(Cc3cc(C(F)(F)F)cc(C(F)(F)F)c3)C2=O)CCC1)c1ccc(F)cc1 [Example 53, N-{1-[({(3R)-1-[3,5-bis(trifluoromethyl)benzyl]-2,5-dioxo-2,3,4,5-tetrahydro-1H-1-benzazepin-3-yl}amino)carbonyl]cyclobutyl}-4-fluorobenzamide] — 3.3-fold lower, 77 nM
